Source: patent US10392381B2, “Prevention and treatment of non-alcoholic fatty liver disease” (Ohio University, priority 2014, dated 2019)

Legend:
[1] = system: Patients at risk for developing NAFLD; assay: Therapeutic use to prevent development of NAFLD in patients at risk (Example 10, contemplated); type: in vivo, human; settings: once daily oral dose of 1 mg/kg, chronically
Method: Contemplated Experimental Protocol. Patients at risk for developing NAFLD are prescribed COB-204, COB-214, COB-152, or COB-187 to prevent excess accumulation of fat. Each patient takes a once daily oral dose of 1 mg/kg of body weight of the COB-204, COB-214, COB-152, or COB-187, chronically, during which fat content in the liver is determined via liver function testing, liver ultrasound, and liver biopsy.

[2] = system: C57BL/6J mice on a HFD (liver tissue); assay: Prevention of NAFLD in C57BL/6J mice fed a HFD (Example 7): macroscopic observation, hematoxylin and eosin histology, liver triglyceride quantification; type: in vivo; settings: C57BL/6J mice on HFD; for mean triglyceride concentration (mg/g liver) in liver tissue compared with HFD or HFD + DMSO mice / Percentage of Triglyceride Values (mg/g liver) Below the Mean of the HFD + Sham Group / macroscopic observation of fatty liver disease compared with sham or DMSO injection: 1 mg/kg intraperitoneal once daily for 6 weeks; for mean triglyceride concentration (mg/g liver) in liver tissue compared with HFD or HFD + DMSO mice: comparison of means in FIG. 3; for Percentage of Triglyceride Values (mg/g liver) Below the Mean of the HFD + Sham Group: middle, right and left liver lobes (FIG. 3), 1 mg/kg; for macroscopic observation of fatty liver disease compared with sham or DMSO injection: removed liver tissue; for histological examination of hepatic fat accumulation compared with sham or DMSO injection: 1 mg/kg intraperitoneal once daily, middle lobe of liver, hematoxylin and eosin (FIG. 4)
Method: Quantification of triglycerides of the middle, right, and left lobes was performed to ensure that accumulation (or lack thereof) of triglycerides was similar in each lobe of the liver and to ensure that a representative analysis of triglyceride accumulation in the liver as a whole was assessed. The caudate lobe was excluded since the caudate lobe is very small compared to the middle, right, and left lobes. Triglycerides were quantified in accordance with the following general protocol, based upon the Salmon and Flatt Method of Liver Saponification. 50-100 mg of liver tissue was placed into an Eppendorf tube and weighed. Equal volume per weight of 3 M KOH (in 65% EtOH) was added to the tube and vortexed. The tube was placed at 70° C. for 1 hr to activate digestion. The tubes were vortexed every 15 minutes. The tube was set at room temperature overnight to allow for complete digestion, and was vortexed periodically. The sample was diluted to a final concentration of 100 mg of liver tissue per 600 μl fluid; the sample was diluted by adding 2 M Tris-HCl (un-pHed) to a final concentration of 50 mM. Where a second dilution was required, the sample was diluted using 50 mM Tris-HCl (pH 7.5). Triglycerides-GPO (0.5 mL, liquid; Pointe Scientific Cat. No. T7532-500; Fisher Scientific, Pittsburgh, Pa.) were aliquoted into Eppendorf tubes and warmed in a 37° C. water bath for 5-10 minutes. Glycerol standards (0, 1, 2.5, 5, 7.5 and 10 mmol/L) were made by diluting 10 mmol/L stock of glycerol, such as, e.g., with 50 mM Tris-HCl. 5 μL of the sample and glycerol standards (0, 1, 2.5, 5, 7.5 and 10 mmol/L) were added to 0.5 mL of the triglycerides-GPO, mixed, and incubated at room temperature for 5 minutes. The mixture was then vortexed and added (200 μL) to each well of a 96-well flat-bottom ELISA plate (in triplicate). Absorbance (i.e., optical density) was read at 500 nm. The concentrations of the samples were determined via use of a plot of glycerol standards concentration (mmol/L) with respect to optical density (i.e., O.D.) at 500 nm. The concentration of glycerol (mg glycerol/g tissue) was then calculated and triglyceride concentration was determined, in accordance with calculations known to those of ordinary skill in the art.
Experimental Protocol. 7 week old male C57BL/6J mice (i.e., a mouse model of obesity-induced insulin resistance and Type 2 Diabetes Mellitus) were placed on a HFD (i.e., having a fat content of 60%, a protein content of 20%, and a carbohydrate content of […], N=50). The C57BL/6J mice on the HFD were divided into five groups, wherein one such group was immediately given an intraperitoneal sham injection (i.e., Group 1, serving as a stress control N=10), another group was immediately given an intraperiteonal injection of dimethyl sulfoxide (hereinafter, “DMSO”, i.e., Group 2, serving as a vehicle control, N=10), another group was immediately given an intraperitoneal injection of 1 mg/kg COB-204 (i.e., Group 3, N=10), another group was immediately given an intraperitoneal injection of 1 mg/kg COB-214 (i.e., Group 4, N=10), and another group was immediately given an intraperitoneal injection of 1 mg/kg COB-187 (i.e., Group 5, N=10). Such injections were initiated with the HFD and were given to the C57BL/6J mice on the HFD once daily for a period of 6 weeks. Food intake and total body weight of the C57BL/6J mice were measured weekly.
At 0 weeks, some of the C57BL/6J mice from each of Groups 1-5 were euthanized (N=5). Liver tissue of the C57BL/6J mice euthanized at 0 weeks was harvested and divided into lobes, including the middle lobe, the right lobe, and the left lobe, for morphological (i.e., hematoxylin and eosin staining) and molecular analysis (i.e., quanitification of triglycerides). The caudate lobe was excluded from such division as the caudate lobe is very small compared to the middle, right, and left lobes. […]

[3] = system: C57BL/6J mice on an HFD with NAFLD (liver tissue); assay: Treatment of NAFLD in C57BL/6J mice fed a HFD (Example 8, contemplated); type: in vivo; settings: C57BL/6J mice on HFD after NAFLD is observed; once daily ip 1, 3 or 10 mg/kg/day for up to 16 weeks (24 weeks if no effect)
Method: Contemplated Experimental Protocol. C57BL/6J mice are placed on an HFD containing 60% fat (by % Kcal) (Diet #D12492, Research Diets, Inc.) for a period of weeks (as determined by the results of Example 6) until development of NAFLD is observed and clearly distinguishable from LFD-fed mice of the same age (between 4-8 weeks). At the time or after NAFLD is observed, once daily ip injections of COB-204, COB-214, COB-152, COB-187, DMSO, or sham are administered. Five mice are then euthanized weekly thereafter to characterize the effects of the COB-204, COB-214, COB-152, COB-187, DMSO, and/or sham on treatment of NAFLD for the period of up to 16 weeks post-initiation of the COB-204, COB-214, COB-152, COB-187, DMSO, and sham administration. The period of time for which treatment is administered will be extended to 24 weeks if no effect of the COB-204, COB-214, COB-152, or COB-187 administration on treatment of NAFLD is observed. The following Table further illustrates the experimental design:
If no effect of the COB-204, COB-214, COB-152, or COB-187 administration on treatment of NAFLD is observed by 16 weeks post-initiation of the COB-204, COB-214, COB-152, COB-187, DMSO, and sham administration, a subsequent study is performed wherein the period of time is extended to 24 weeks of the COB-204, COB-214, COB-152, and COB-187 administration, with 5 mice euthanized weekly from weeks 17-24 as previously described. The following Table further illustrates the experimental design:
NAFLD is evaluated in the liver of the HFD mice macroscopically, microscopically, and molecularly. More specifically, following euthanasia, the liver of each mouse is removed, weighed, and photographs taken thereof for macroscopic and/or gross observation of NAFLD. Then, the liver of each mouse is split in half, wherein one half is used for microscopic analysis of NAFLD and the remaining half is used for molecular analysis of NAFLD (i.e., quantification of triglycerides). Quantification of triglycerides is performed in accordance with the general protocol described in Example 6.

Patients having NAFLD = assay: Therapeutic use to treat NAFLD in patients (Example 11, contemplated); type: in vivo, human; settings: once daily oral dose of 3 mg/kg
Method: Contemplated Experimental Protocol. Patients having NAFLD are prescribed COB-204, COB-214, COB-152, or COB-187 to reduce the fat content in their liver. After determination of a baseline level of fat content in each of the patients' livers, each patient takes a once daily oral dose of 3 mg/kg of body weight of the COB-204, COB-214, COB-152, or COB-187, during which fat content in each patient's liver tissue is determined via liver function testing, liver ultrasound, and liver biopsy.

| SMILES | excess accumulation of fat in the liver of patients [1] | mean triglyceride concentration (mg/g liver) in liver tissue compared with HFD or HFD + DMSO mice [2] | Percentage of Triglyceride Values (mg/g liver) Below the Mean of the HFD + Sham Group [2] | macroscopic observation of fatty liver disease compared with sham or DMSO injection [2] | histological examination of hepatic fat accumulation compared with sham or DMSO injection [2] | fat content in the liver tissue of the mice [3] | fat content in the patient's liver (Patients having NAFLD) |
| --- | --- | --- | --- | --- | --- | --- | --- |
| OC1(c2ccccc2)CSC(=S)N1Cc1ccncc1 (stereo not drawn) [COB-187] | no excess accumulation of fat | lower mean triglyceride concentration | 79% | much less fatty liver disease | much less hepatic fat accumulation | reduced relative to a baseline level | reduced relative to the baseline level |
| OC1(c2ccccc2)CSC(=S)N1Cc1cccnc1 (stereo not drawn) [COB-152] | no excess accumulation of fat |  |  |  |  | reduced relative to a baseline level | reduced relative to the baseline level |
| COc1ccc(-c2csc(=S)n2Cc2cccnc2)c(OC)c1 [COB-204] | no excess accumulation of fat | no effect | 60% | much less fatty liver disease | much less hepatic fat accumulation | reduced relative to a baseline level | reduced relative to the baseline level |
| CCCn1c(-c2cccnc2)csc1=S [COB-214] | no excess accumulation of fat | lower mean triglyceride concentration | 87% | much less fatty liver disease | much less hepatic fat accumulation | reduced relative to a baseline level | reduced relative to the baseline level |
